Entries after “also recorded” stand apart in the source; their conditions may differ.
Assays:
[1] = test system: ovarian cancer cells JC, NIH:OVCAR-3, SKOV-3; assay: In vitro cytotoxicity test (Alamar blue, microscopy) on ovarian cancer cells; assay type: cell-based; conditions: for cytotoxicity towards ovarian cancer cells (in words): 1, 5 and 10 μg/mL
Description: (§1) Cells used in the assays were an ovarian cell line, JC (van Haaften-Day et al. 1983. Cancer Research 43: 3725-3731), OVCAR-3 and SKOV-3, The American Type Culture Collection (ATCC), a melanoma line (MM-An, Byers et al. 1991. Am J Path 139, No 2: 423-435) and normal human diploid fibroblasts primary cultures (Brookes et al. 2002 The EMBO Journal Vol. 21, No. 12: 2936-2945).
(§2) In vitro cytotoxicity tests were performed using a non-fluorescent substrate, Alamar blue (BioSource, Invitrogen, UK) as described by Page et al. (Page B, Page M and Noel C. 1993. International Journal of Oncology 3: 473-476).
(§3) Ovarian cancer cells (1×10^4 or 5×10^4) were seeded in 24-well plates (Costar, USA) and grown in RPMI-1640, supplemented with 6 mM L-glutamine, 10% fetal calf serum (FCS) (Gibco, Invitrogen, UK) and penicillin (100 units/mL) and streptomycin (100 μg/mL), while melanoma cells and normal fibroblasts were grown in Dulbecco's modified Eagle medium (DMEM), also supplemented with L-glutamine and FCS. The cultures were maintained in a humidified atmosphere of 5% CO2 at 37° C.
(§4) The in exponential growth cultures (in triplicates) were treated with the compound, dissolved in dimethyl sulfoxide (DMSO) and added at final concentrations of 1, 5, and 10 μg/mL. In 2 mL medium/well 10% Alamar blue was added and 100 μl of the supernatant of the 24-well plates after 24, 48 and 72 hrs were pipetted into 96-well plates (Costar, USA). Cell viability was measured with a 96-well plate reader (Molecular Devices Ltd, UK).
(§5) Ovarian cancer cells JC, NIH:OVCAR-3, Skov-3, fibroblasts as well as melanoma cancer cells MM-AN were used for cytotoxicity tests with EPD and EPA. The final concentrations of EPD and EPA added to the growth medium were 1, 5 and 10 μg/ml per well.
(§6) Photographs were taken from the ovarian cancer cell line JC, the melanoma cell line MM-An and normal fibroblasts in 24-well plates using a Leica inverted microscope at a magnification of 100 times. Concentrations of EPD ranged 1-10 μg/mL and the experiments were terminated at 48 and 72 hrs (FIGS. 6-8).
Cell viability was measured by adding 10% Alamar Blue (BioSource, Invitrogen, UK) to ovarian cancer cell cultures (OVCAR-3, SKOV-3) to 1, 5 and 10 μg/ml of EPD and to the control cultures (as described above). After 24, 48 and 72 hours incubation, 100 μl of culture supernatant was taken and cell viability measured with a plate reader (Molecular Devices, Ltd, UK) according to the manufacturer's instructions. The results are depicted in FIGS. 3-5 and confirm that the phenomenon observed in the photographs of FIGS. 6-8 is cell death.

melanoma cells MM-AN = assay: In vitro cytotoxicity test on melanoma cells; assay type: cell-based
Description: as §1, §2, §3, §4, §5, §6

[2] = test system: normal human diploid fibroblasts; assay: In vitro cytotoxicity test on normal cells; assay type: cell-based
Description: The cultures were maintained in a humidified atmosphere of 5% CO2 at 37° C.
as §4, §5, §6

NIH:OVCAR-3 cells = assay: Ovarian cancer animal model (i.p. OVCAR-3 ascites); assay type: in vivo, Balb/c nu/nu mice
Description: In order to assess the efficacy of EPD in the treatment of ovarian cancer, in vivo experiments were performed with Balb/c nu/nu mice (Charles River Laboratories, France). As a model system of advanced ovarian cancer, a total of 20 Balb/c nu/nu mice were inoculated intra-peritoneally (i.p.) with 1.0×10^7 cells NIH:OVCAR-3 cells (American Type Culture Collection (ATCC number: HTB-161™)/200 μl PBS. NIH:OVCAR-3 is an appropriate model system in which to study drug resistance in ovarian cancer. Upon inoculation into the abdominal cavity ascites were formed at first in only 5 mice. One mouse after having developed a large abdomen was sacrificed and the ascites cells were inoculated into the 15 mice which had not developed ascites. Another mouse was sacrificed to freeze down the cells. […] The 15 mice without ascites were devided into 3 groups of 5 mice. One group served as control, one group received the standard chemotherapy cisplatin and one group received the test drug EPD.
Drugs were given 200 μl/mouse i.p. in order to assess their efficacy as anti-tumor drug. The weight of mice when drug-treated varied between 22 and 26 gram, all with a swollen abdomen. Reduction of the swollen abdomen of the mice (resulting from the killing of the OVCAR-3 cells) was then studied.
Eremophila-1(10)-11(13)-dien-12,8β-olide (EPD) was administered at 20 mg/kg body weight. EPD was isolated from Calomeria amaranthoides as described in Example 1 above. The drug was inoculated twice a week into the abdominal cavity of the mice.

leukocytes = conditions: Dupuis & Brisson 1976; cited from earlier work
P388 Leukemia = conditions: NCI screening data 1972; cited from earlier work
[3] = 20 mg/kg i.p. twice a week for 6 weeks

For `C=C(C(=O)O)[C@@H]1CCC2=CCC[C@H](C)[C@@]2(C)C1` [EPA, eremophila-1(10),11(13)-dien-12-oic acid], the “cytotoxicity towards ovarian cancer cells (in words)” value [1] was “non-cytotoxic; also recorded: no cytotoxicity; also recorded: did not show cytotoxic effects”, the “cytotoxicity towards melanoma cells (in words)” value (melanoma cells MM-AN; 1, 5 and 10 μg/mL) was “no cytotoxicity” and the “cytotoxicity towards normal fibroblasts (in words)” value ([2]; 1, 5 and 10 μg/mL) was “no cytotoxicity”.
In the case of `C=C1C(=O)O[C@@H]2CC3=CCC[C@H](C)[C@@]3(C)C[C@H]12` [EPD, eremophila-1(10)-11(13)-dien-12,8β-olide], the “effect on cancer cells at 1 μg/mL” value ([1]; 1 μg/mL, in vitro) is reported as “many cancer cells were floating in the wells; also recorded: great cell loss was already seen; also recorded: substantial killing of cancer cells”, the “cell death of cancer cells at 5 μg/mL” value ([1]; 5 μg/mL, 48 hours) is reported as “Cell death was observed in the majority of cancer cells; also recorded: killed” and the “cell death of cancer cells at 10 μg/mL” value ([1]; 10 μg/mL, 48 hours) is reported as “All cells were dead”. For the same compound, the “cytotoxicity towards ovarian cancer cells (in words)” value [1] was “significant activity; also recorded: very clear cytotoxic effects”, the “selectivity, cancer cells over normal cells” value ([1]; in vitro, compared with normal cells) was “selectively kills cancer cells over normal cells” and the “cell death of cancer cells at 5 μg/mL” value (melanoma cells MM-AN; 5 μg/mL, 48 hours, MM-An) was “Cell death was observed in the majority of cancer cells”. The “cell death of cancer cells at 10 μg/mL” value (melanoma cells MM-AN; 10 μg/mL, 48 hours, MM-An) was “All cells were dead”, the “effect on normal cells at 5 μg/mL” value ([2]; 5 μg/mL, 48 hours) was “not or little affected; also recorded: largely unaffected; also recorded: little affected” and the “effect on normal fibroblasts at 10 μg/mL” value ([2]; 10 μg/mL, 48 hours) was “more evidence of cell death”. The “general health, side effects” value (NIH:OVCAR-3 cells; [3]) was “looked very healthy; also recorded: did not show any signs of side effects”, the “swelling of the abdomen (ascites)” value (NIH:OVCAR-3 cells; [3]) was “reduced during treatment; also recorded: remission of cancer; also recorded: the ascites disappeared” and the survival (NIH:OVCAR-3 cells; i.p. twice a week for 6 weeks) was “all the animals survived the study”. For the same compound, the “return of ascites after end of treatment” value (NIH:OVCAR-3 cells; three mice kept one month without further treatment after 6 weeks of treatment) was “In one mouse the ascites returned, two mice did not develop ascites again”.
For `C=C1C(=O)O[C@@H]2C[C@@]3(C)CCC[C@H](C)C3=C[C@H]12` [alantolactone], the toxicity to leukocytes (leukocytes) is given as “toxic”.
For `N.N.[Cl][Pt][Cl]` [cisplatin, reference compound], the “killing of cancer cells, parallel comparison” value ([1]; comparison of crude extract, cisplatin and docetaxol, concentration of the drugs not given) was “all killed; also recorded: completely kill”, the “swelling of the abdomen (ascites)” value (NIH:OVCAR-3 cells; 5 mg/kg i.p. once a week for 4 weeks) was “reduced during treatment” and the “general health, side effects” value (NIH:OVCAR-3 cells; 5 mg/kg i.p. once a week, 4 weeks) was “got very sick; also recorded: had to be euthanized”.
In the case of `CC(=O)O[C@@]12CO[C@@H]1C[C@H](O)[C@@]1(C)C(=O)[C@H](O)C3=C(C)[C@@H](OC(=O)[C@H](O)[C@@H](NC(=O)OC(C)(C)C)c4ccccc4)C[C@@](O)([C@@H](OC(=O)c4ccccc4)[C@H]21)C3(C)C` [docetaxol, reference compound], the “killing of normal cells, parallel comparison” value ([2]; concentration of the drugs not given) is reported as “completely kill”.
In the case of `C=C1C(=O)O[C@H]2CC3=CCC[C@H](C)[C@@]3(C)C[C@@H]12` [napthofuranone, (3aβ,4aα,5α,9aβ)-3a,4,4a,5,6,7,9,9a-octahydro 4a,5-dimethyl-3-methylene naphtho[2,3-b]furan-2(3H)-2-one], the “in vivo anti-tumor activity” value (P388 Leukemia) is listed as “no clear results”.
